Assay results taken from patent publication US4605744A, “Imidazole derivatives” (Hoffmann-La Roche Inc., priority 1985, dated 1986).
Values after ≈ are worked out from the molar mass of the structure shown. Where a name gives a salt, the structure may show the parent alone. Read-outs that look alike come from different tables or passages of the source.

What was measured:
Experiment in all cases: In vitro antibacterial activity (MIC)
Type in all cases: cell-based
C. freundii 8ASM = conditions: Citrobacter freundii, 8ASM, C. freundii 8ASM; read-out: MIC
Summary of the method: (§1)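 Twofold-style dilution series (128 to 0.008 μg/ml) made in Mueller-Hinton broth, dispensed, then inoculated with 1.5 μl of a 10^-2 overnight-culture dilution. Plates sealed, held overnight at 37° C, inspected with a viewer.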

E. aerogenes 503-478 = conditions: Klebsiella aerogenes, 503478, E. aerogenes 503-478; read-out: MIC
Summary of the method: as §1

E. aerogenes 83 = conditions: Klebsiella aerogenes, 83, E. aerogenes 83; read-out: MIC
Summary of the method: as §1

E. aerogenes 8 = conditions: Klebsiella aerogenes; E. aerogenes 8; read-out: MIC
Summary of the method: as §1

E. cloacae 214 = test system: E. cloacae 214
Summary of the method: as §1

E. cloacae 5699 = conditions: Enterobacter cloacae, 5699, E. cloacae 5699; read-out: MIC
Summary of the method: as §1

E. cloacae 6951 = conditions: Enterobacter cloacae, 6951, E. cloacae 6951; read-out: MIC
Summary of the method: as §1

E. cloacae 9295 = conditions: Enterobacter cloacae, 9295, E. cloacae 9295; read-out: MIC
Summary of the method: as §1

E. cloacae 9570A = conditions: Enterobacter cloacae, read-out: MIC
Summary of the method: as §1

E. cloacae P99 = conditions: Enterobacter cloacae, P99, E. cloacae P99
Summary of the method: as §1

E. coli 387-1 = test system: E. coli 387-1
Summary of the method: as §1

E. coli 48 = conditions: Escherichia coli, 48, E. coli 48; read-out: MIC
Summary of the method: as §1

E. coli 4 = conditions: Escherichia coli, 4, E. coli 4; read-out: MIC
Summary of the method: as §1

E. coli 503-455 = conditions: Escherichia coli, 503455, E. coli 503-455; read-out: MIC
Summary of the method: as §1

E. coli 5152 = conditions: Escherichia coli, 5152, E. coli 5152; read-out: MIC
Summary of the method: as §1

E. coli R-563 = conditions: Escherichia coli
Summary of the method: as §1

K. pneumoniae 35 = conditions: Klebsiella pneumoniae; K. pneumoniae 35; read-out: MIC
Summary of the method: as §1

K. pneumoniae 4964 = conditions: Klebsiella pneumoniae, 4964, K. pneumoniae 4964; read-out: MIC
Summary of the method: as §1

K. pneumoniae 503-964 = conditions: Klebsiella pneumoniae, 503964; K. pneumoniae 503-964; read-out: MIC
Summary of the method: as §1

K. pneumoniae 503-994 = conditions: Klebsiella pneumoniae, 503994, K. pneumoniae 503-994; read-out: MIC
Summary of the method: as §1

K. pneumoniae 5096 = conditions: Klebsiella pneumoniae; K. pneumoniae 5096; read-out: MIC
Summary of the method: as §1

K. pneumoniae 8357 = conditions: Klebsiella pneumoniae, 8357, K. pneumoniae 8357; read-out: MIC
Summary of the method: as §1

K. pneumoniae A = conditions: Klebsiella pneumoniae, K. pneumoniae A; read-out: MIC
Summary of the method: as §1

K. pneumoniae HE7 = conditions: Klebsiella pneumoniae; K. pneumoniae HE7; read-out: MIC
Summary of the method: as §1

P. aeruginosa 503-56 = conditions: Pseudomonas aeruginosa, 50356, P. aeruginosa 503-56; read-out: MIC
Summary of the method: as §1

P. aeruginosa 503-820 = conditions: Pseudomonas aeruginosa, 503820; P. aeruginosa 503-820; read-out: MIC
Summary of the method: as §1

P. aeruginosa 6148B = conditions: Pseudomonas aeruginosa, read-out: MIC
Summary of the method: as §1

P. aeruginosa 8710 = conditions: Pseudomonas aeruginosa; P. aeruginosa 8710; read-out: MIC
Summary of the method: as §1

P. aeruginosa 8780 = conditions: Pseudomonas aeruginosa; P. aeruginosa 8780; read-out: MIC
Summary of the method: as §1

P. mirabilis 190 = conditions: Proteus mirabilis, 190, P. mirabilis 190; read-out: MIC
Summary of the method: as §1

P. mirabilis 2 = conditions: Proteus mirabilis, 2, P. mirabilis 2; read-out: MIC
Summary of the method: as §1

P. rettgeri ATCC 9250 = conditions: Providencia rettgeri, ATCC9250, P. rettgeri ATCC 9250; read-out: MIC
Summary of the method: as §1

P. vulgaris ATCC 6380 = conditions: Proteus vulgaris
Summary of the method: as §1

S. aureus Giorgio = conditions: Staphylococcus aureus, S. aureus Giorgio; read-out: MIC
Summary of the method: as §1

S. marcescens 5805 = conditions: Serratia marcescens, 5805, S. marcescens 5805; read-out: MIC
Summary of the method: as §1

S. marcescens S2 = conditions: Serratia marcescens; S. marcescens S2; read-out: MIC
Summary of the method: as §1

S. marcescens S3 = conditions: Serratia marcescens; S. marcescens S3; read-out: MIC
Summary of the method: as §1

S. marcescens S4 = conditions: Serratia marcescens, S4, S. marcescens S4; read-out: MIC
Summary of the method: as §1

S. marcescens SM = conditions: Serratia marcescens, read-out: MIC
Summary of the method: as §1

S. pneumoniae 6301 = conditions: Streptococcus pneumoniae, 6301, S. pneumoniae 6301; read-out: MIC
Summary of the method: as §1

S. pneumoniae 6302 = conditions: Streptococcus pneumoniae, 6302, S. pneumoniae 6302; read-out: MIC
Summary of the method: as §1

S. pneumoniae SC = conditions: Streptococcus pneumoniae, read-out: MIC
Summary of the method: as §1

S. pyogenes 4 = conditions: Streptococcus pyogenes, 4, S. pyogenes 4; read-out: MIC
Summary of the method: as §1

S. schottmuelleri = conditions: read-out: MIC
Summary of the method: as §1

S. typhi P58A = conditions: Salmonella enterica, TYPHI
Summary of the method: as §1

Molecule `CC1(C)S[C@@H]2[C@H](N=CN3CCC(CCCn4ccnc4)CC3)C(=O)N2[C@H]1C(=O)O` [C, [2S-(2alpha,5alpha,6beta)]-6-[[4-[3-(1H-imidazol-1-yl)propyl]-1-piperidinyl]methylene]amino]-3,3-dimethyl-7-oxo-4-thia-1-azabicyclo[3.2.0]heptane-2-carboxylic acid 1.2 mole hydrochloride monohydrate] has an MIC (C. freundii 8ASM) of 4 µg/mL, an MIC (E. aerogenes 503-478) of 128 µg/mL and an MIC (E. aerogenes 83) of over 128 µg/mL. It also gave an MIC (E. aerogenes 8) of over 128 µg/mL, an MIC (E. cloacae 214; Enterobacter cloacae, 214, E. cloacae 214, read-out: MIC) of 16 µg/mL and an MIC (E. cloacae 5699) of 16 µg/mL. The MIC (E. cloacae 6951) was over 128 µg/mL, the MIC (E. cloacae 9295) was 16 µg/mL and the MIC (E. cloacae 9570A) was 16 µg/mL. The MIC (E. cloacae P99) was 8 µg/mL, the MIC (E. coli 387-1; Escherichia coli, 3871, E. coli 387-1, read-out: MIC) was 8 µg/mL and the MIC (E. coli 48) was 2 µg/mL. For the same molecule, the MIC (E. coli 4) was 8 µg/mL, the MIC (E. coli 503-455) was 128 µg/mL and the MIC (E. coli 5152) was over 128 µg/mL. For the same molecule, the MIC (E. coli R-563; R563, E. coli R-563, read-out: MIC) was 4 µg/mL, the MIC (K. pneumoniae 35) was 8 µg/mL and the MIC (K. pneumoniae 4964) was over 128 µg/mL. For the same molecule, the MIC (K. pneumoniae 503-964) was 8 µg/mL, the MIC (K. pneumoniae 503-994) was 32 µg/mL and the MIC (K. pneumoniae 5096) was over 128 µg/mL. For the same molecule, the MIC (K. pneumoniae 8357) was 16 µg/mL, the MIC (K. pneumoniae A) was 4 µg/mL and the MIC (K. pneumoniae HE7) was over 128 µg/mL. It also gave an MIC (P. aeruginosa 503-56) of over 128 µg/mL, an MIC (P. aeruginosa 503-820) of over 128 µg/mL and an MIC (P. aeruginosa 6148B) of over 128 µg/mL. It also gave an MIC (P. aeruginosa 8710) of over 128 µg/mL, an MIC (P. aeruginosa 8780) of over 128 µg/mL and an MIC (P. mirabilis 190) of 8 µg/mL. For the same molecule, the MIC (P. mirabilis 2) was 16 µg/mL, the MIC (P. rettgeri ATCC 9250) was 16 µg/mL and the MIC (P. vulgaris ATCC 6380; ATCC6380, P. vulgaris ATCC 6380, read-out: MIC) was 4 µg/mL. For the same molecule, the MIC (S. aureus Giorgio) was over 128 µg/mL, the MIC (S. marcescens 5805) was 32 µg/mL and the MIC (S. marcescens S2) was 16 µg/mL. It also gave an MIC (S. marcescens S3) of 16 µg/mL, an MIC (S. marcescens S4) of 32 µg/mL and an MIC (S. marcescens SM) of 8 µg/mL. For the same molecule, the MIC (S. pneumoniae 6301) was 128 µg/mL, the MIC (S. pneumoniae 6302) was 128 µg/mL and the MIC (S. pneumoniae SC) was 64 µg/mL. For the same molecule, the MIC (S. pyogenes 4) was 64 µg/mL, the MIC (S. schottmuelleri) was 4 µg/mL and the MIC (S. typhi P58A) was 8 µg/mL.
Molecule `CC1(C)S[C@@H]2[C@H](N=CN3CCC(Cn4ccnc4)CC3)C(=O)N2[C@H]1C(=O)O` [Compound A] has an MIC (C. freundii 8ASM) of 0.062 µg/mL (≈ 0.158 µM), an MIC (E. aerogenes 503-478) of 0.062 µg/mL (≈ 0.158 µM) and an MIC (E. aerogenes 83) of 2 µg/mL (≈ 5.11 µM). It also gave an MIC (E. aerogenes 8) of 32 µg/mL (≈ 81.7 µM), an MIC (E. cloacae 214; Enterobacter cloacae, 214) of 0.125 µg/mL (≈ 0.319 µM) and an MIC (E. cloacae 5699) of 0.5 µg/mL (≈ 1.28 µM). The MIC (E. cloacae 6951) was 4 µg/mL (≈ 10.2 µM), the MIC (E. cloacae 9295) was 0.5 µg/mL (≈ 1.28 µM) and the MIC (E. cloacae 9570A) was 0.5 µg/mL (≈ 1.28 µM). It also gave an MIC (E. cloacae P99) of 0.25 µg/mL (≈ 0.639 µM), an MIC (E. coli 387-1; Escherichia coli, 3871) of 0.125 µg/mL (≈ 0.319 µM) and an MIC (E. coli 48) of 0.062 µg/mL (≈ 0.158 µM). For the same molecule, the MIC (E. coli 4) was 0.062 µg/mL (≈ 0.158 µM), the MIC (E. coli 503-455) was 2 µg/mL (≈ 5.11 µM) and the MIC (E. coli 5152) was 16 µg/mL (≈ 40.9 µM). For the same molecule, the MIC (E. coli R-563; R563) was 0.125 µg/mL (≈ 0.319 µM), the MIC (K. pneumoniae 35) was 0.25 µg/mL (≈ 0.639 µM) and the MIC (K. pneumoniae 4964) was 2 µg/mL (≈ 5.11 µM). It also gave an MIC (K. pneumoniae 503-964) of 0.016 µg/mL (≈ 0.0409 µM), an MIC (K. pneumoniae 503-994) of 0.25 µg/mL (≈ 0.639 µM) and an MIC (K. pneumoniae 5096) of 64 µg/mL (≈ 163 µM). For the same molecule, the MIC (K. pneumoniae 8357) was 0.25 µg/mL (≈ 0.639 µM), the MIC (K. pneumoniae A) was under 0.008 µg/mL and the MIC (K. pneumoniae HE7) was over 128 µg/mL. For the same molecule, the MIC (P. aeruginosa 503-56) was over 128 µg/mL, the MIC (P. aeruginosa 503-820) was over 128 µg/mL and the MIC (P. aeruginosa 6148B) was over 128 µg/mL. For the same molecule, the MIC (P. aeruginosa 8710) was over 128 µg/mL, the MIC (P. aeruginosa 8780) was over 128 µg/mL and the MIC (P. mirabilis 190) was 0.25 µg/mL (≈ 0.639 µM). For the same molecule, the MIC (P. mirabilis 2) was 0.5 µg/mL (≈ 1.28 µM), the MIC (P. rettgeri ATCC 9250) was 0.5 µg/mL (≈ 1.28 µM) and the MIC (P. vulgaris ATCC 6380; ATCC6380) was 0.125 µg/mL (≈ 0.319 µM). It also gave an MIC (S. aureus Giorgio) of 8 µg/mL (≈ 20.4 µM), an MIC (S. marcescens 5805) of 1 µg/mL (≈ 2.55 µM) and an MIC (S. marcescens S2) of 0.25 µg/mL (≈ 0.639 µM). For the same molecule, the MIC (S. marcescens S3) was 0.25 µg/mL (≈ 0.639 µM), the MIC (S. marcescens S4) was 1 µg/mL (≈ 2.55 µM) and the MIC (S. marcescens SM) was 0.25 µg/mL (≈ 0.639 µM). For the same molecule, the MIC (S. pneumoniae 6301) was 1 µg/mL (≈ 2.55 µM), the MIC (S. pneumoniae 6302) was 2 µg/mL (≈ 5.11 µM) and the MIC (S. pneumoniae SC) was 2 µg/mL (≈ 5.11 µM). It also gave an MIC (S. pyogenes 4) of 1 µg/mL (≈ 2.55 µM), an MIC (S. schottmuelleri) of 0.125 µg/mL (≈ 0.319 µM) and an MIC (S. typhi P58A) of 0.25 µg/mL (≈ 0.639 µM).
